Activity data for five compounds are collected here from ChEMBL document CHEMBL2074445, “Effect of organic isothiocyanates on the P-glycoprotein- and MRP1-mediated transport of daunomycin and vinblastine” (Pharm Res, 2002).

Common to all, as to assay type: functional, cell-based
The target in data set [1] is T1, Multidrug resistance-associated protein 1 (Homo sapiens, UniProt P33527). The experiment in a line: TP_TRANSPORTER: increase in Daunomycin intracellular accumulation (Daunomycin: 0.05 uM, NITC: 100 uM) in PANC-1 cells. Conditions: panc-1, 100 µM.
T1 sequence (P33527 whole entry): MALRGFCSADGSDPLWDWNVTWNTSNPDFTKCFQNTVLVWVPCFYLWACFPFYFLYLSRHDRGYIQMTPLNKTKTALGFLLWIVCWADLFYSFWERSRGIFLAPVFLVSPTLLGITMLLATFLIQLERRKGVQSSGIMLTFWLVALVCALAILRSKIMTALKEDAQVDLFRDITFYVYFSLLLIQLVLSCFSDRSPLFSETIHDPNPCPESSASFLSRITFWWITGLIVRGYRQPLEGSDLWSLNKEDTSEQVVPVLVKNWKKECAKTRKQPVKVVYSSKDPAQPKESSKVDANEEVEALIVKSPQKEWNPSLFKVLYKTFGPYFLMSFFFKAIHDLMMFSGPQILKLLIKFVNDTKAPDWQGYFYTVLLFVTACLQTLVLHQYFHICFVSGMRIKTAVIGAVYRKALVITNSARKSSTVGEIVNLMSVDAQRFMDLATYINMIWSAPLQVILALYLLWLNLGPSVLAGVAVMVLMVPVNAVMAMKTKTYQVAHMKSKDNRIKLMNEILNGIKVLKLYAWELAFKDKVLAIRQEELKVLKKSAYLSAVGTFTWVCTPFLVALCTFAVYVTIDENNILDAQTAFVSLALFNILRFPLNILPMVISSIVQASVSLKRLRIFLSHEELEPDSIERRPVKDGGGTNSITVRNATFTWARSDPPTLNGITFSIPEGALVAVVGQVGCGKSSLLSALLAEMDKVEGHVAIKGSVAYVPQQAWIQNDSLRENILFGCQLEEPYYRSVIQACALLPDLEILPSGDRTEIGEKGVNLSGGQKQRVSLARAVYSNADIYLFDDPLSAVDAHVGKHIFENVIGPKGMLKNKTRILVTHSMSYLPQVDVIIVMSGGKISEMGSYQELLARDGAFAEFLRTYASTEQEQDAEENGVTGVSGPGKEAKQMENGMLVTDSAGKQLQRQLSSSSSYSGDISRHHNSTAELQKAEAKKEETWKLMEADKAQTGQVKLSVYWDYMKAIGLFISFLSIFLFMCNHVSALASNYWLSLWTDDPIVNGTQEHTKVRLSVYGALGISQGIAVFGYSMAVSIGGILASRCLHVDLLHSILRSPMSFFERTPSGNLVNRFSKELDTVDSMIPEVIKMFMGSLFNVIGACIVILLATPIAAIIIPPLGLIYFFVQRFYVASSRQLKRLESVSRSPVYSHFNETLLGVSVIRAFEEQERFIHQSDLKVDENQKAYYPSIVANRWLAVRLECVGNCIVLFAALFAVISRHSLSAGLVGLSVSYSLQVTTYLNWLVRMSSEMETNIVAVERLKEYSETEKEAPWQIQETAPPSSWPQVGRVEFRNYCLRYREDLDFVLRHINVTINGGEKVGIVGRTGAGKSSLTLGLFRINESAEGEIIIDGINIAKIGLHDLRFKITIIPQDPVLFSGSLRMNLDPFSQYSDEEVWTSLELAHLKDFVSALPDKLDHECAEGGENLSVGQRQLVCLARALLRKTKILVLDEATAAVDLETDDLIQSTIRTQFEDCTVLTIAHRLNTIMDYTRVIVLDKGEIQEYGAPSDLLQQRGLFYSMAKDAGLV
The target in data set [2] is T2, ATP-dependent translocase ABCB1 (Homo sapiens, UniProt P08183). The data set is described as follows: TP_TRANSPORTER: increase in Daunomycin intracellular accumulation (Daunomycin: 0.05 uM, NITC: 100 uM) in MCF-7 ADR cells. Conditions: nci/adr-res.
T2 sequence (P08183 whole entry): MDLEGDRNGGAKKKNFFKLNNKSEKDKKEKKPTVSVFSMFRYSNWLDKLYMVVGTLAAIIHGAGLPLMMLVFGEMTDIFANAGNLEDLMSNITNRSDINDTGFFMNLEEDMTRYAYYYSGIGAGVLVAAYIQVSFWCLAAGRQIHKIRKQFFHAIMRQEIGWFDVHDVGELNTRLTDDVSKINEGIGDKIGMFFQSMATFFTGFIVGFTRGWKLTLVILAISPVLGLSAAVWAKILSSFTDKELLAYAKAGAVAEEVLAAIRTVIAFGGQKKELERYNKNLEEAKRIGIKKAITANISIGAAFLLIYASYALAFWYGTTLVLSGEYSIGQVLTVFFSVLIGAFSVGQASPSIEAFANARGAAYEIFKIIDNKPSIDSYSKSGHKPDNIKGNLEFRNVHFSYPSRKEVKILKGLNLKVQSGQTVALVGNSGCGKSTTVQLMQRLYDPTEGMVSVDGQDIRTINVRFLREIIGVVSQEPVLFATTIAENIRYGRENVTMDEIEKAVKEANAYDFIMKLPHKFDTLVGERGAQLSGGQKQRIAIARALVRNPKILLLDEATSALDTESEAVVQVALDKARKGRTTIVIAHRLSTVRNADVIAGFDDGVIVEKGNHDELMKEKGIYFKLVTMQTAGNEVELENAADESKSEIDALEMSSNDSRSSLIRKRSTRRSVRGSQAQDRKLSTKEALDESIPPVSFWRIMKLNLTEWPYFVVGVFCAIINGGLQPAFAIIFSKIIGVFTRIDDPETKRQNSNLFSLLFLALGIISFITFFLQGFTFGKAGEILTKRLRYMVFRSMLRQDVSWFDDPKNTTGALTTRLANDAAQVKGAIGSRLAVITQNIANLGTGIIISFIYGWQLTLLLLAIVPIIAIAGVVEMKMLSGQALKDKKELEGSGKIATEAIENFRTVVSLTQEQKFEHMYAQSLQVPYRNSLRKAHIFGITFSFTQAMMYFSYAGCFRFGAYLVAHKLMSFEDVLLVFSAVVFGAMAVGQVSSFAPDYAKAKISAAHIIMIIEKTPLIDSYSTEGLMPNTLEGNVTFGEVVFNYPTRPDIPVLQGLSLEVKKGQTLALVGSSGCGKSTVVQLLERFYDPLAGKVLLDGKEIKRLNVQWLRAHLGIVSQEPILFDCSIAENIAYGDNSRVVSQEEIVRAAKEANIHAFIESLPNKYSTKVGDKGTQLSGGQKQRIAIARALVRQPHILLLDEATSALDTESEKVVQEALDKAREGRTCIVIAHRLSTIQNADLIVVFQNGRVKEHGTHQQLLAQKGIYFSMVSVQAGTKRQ
The target in data set [3] is T2, ATP-dependent translocase ABCB1. The experiment in a line: TP_TRANSPORTER: increase in Daunomycin intracellular accumulation (Daunomycin: 0.05 uM, Benzylisothiocyanate: 100 uM) in MCF-7/ADR cells. The note with it: nci/adr-res.
Data set [4] deals with T1, Multidrug resistance-associated protein 1. The experiment in a line: TP_TRANSPORTER: increase in Daunomycin intracellular accumulation (Daunomycin: 0.05 uM, Phenylhexyl isothiocyanate: 100 uM) in PANC-1 cells. Conditions: panc-1, 100 µM.
Data set [5] shares this target. The data set is described as follows: TP_TRANSPORTER: increase in Vinblastine intracellular accumulation (Vinblastine: 0.05 uM, Phenylbutyl isothiocyanate: 100 uM) in PANC-1 cells. Conditions: panc-1, 100 µM.
Data set [6] deals with T2, ATP-dependent translocase ABCB1. The experiment in a line: TP_TRANSPORTER: increase in Vinblastine intracellular accumulation ([…], Phenylhexyl isothiocyanate: 100 uM) in MCF-7/ADR cells. Conditions: nci/adr-res.
For data set [7], the target named is T1, Multidrug resistance-associated protein 1. The experiment in a line: TP_TRANSPORTER: increase in Vinblastine intracellular accumulation (Vinblastine: 0.05 uM, Phenylhexyl isothiocyanate: 100 uM) in PANC-1 cells. Conditions: panc-1, 100 µM.

On to `S=C=Nc1cccc2ccccc12` [1-NAPHTHYLISOTHIOCYANATE], for which the Activity is 3 fold in data set [1] and 4 fold in data set [2]. With `S=C=NCc1ccccc1` [BENZYL ISOTHIOCYANATE], the Activity in data set [3] was determined as 2.5 fold. In turn, `S=C=NCCc1ccccc1` [PHENETHYLISOTHIOCYANATE] showed an Activity in data set [4] of 2 fold. Compound `S=C=NCCCCc1ccccc1` [PHENYLBUTYL ISOTHIOCYANATE] returned an Activity in data set [5] of 2.5 fold. In the case of `S=C=NCCCCCCc1ccccc1` [PHENYLHEXYL ISOTHIOCYANATE], the Activity in data set [6] worked out at 10 fold; in data set [7], 3 fold.
